In patent publication US20220348590A1, “CYCLOOXYGENASE-2 INHIBITORS AND USES THEREOF” (The Board Institute, Inc., priority 2019, published 2022):
“Also recorded” adds a separate entry of the source. Where two headings read alike, the source gives them in different places.

Legend:
[1] = molecular target: T1, human recombinant COX2 (hCOX2) (UniProt P35354); test: LCMS-based COX2 enzymatic inhibition assay (PGE2 quantification); format: biochemical; parameters: improvement in potency; other: COX2 potency relative to MC1 / earlier ligand; comparator not always stated; other: vs MC1 (MC-1); conditions: COX2 potency relative to MC1 / earlier ligand; comparator not always stated
T1 sequence (P35354 1-604): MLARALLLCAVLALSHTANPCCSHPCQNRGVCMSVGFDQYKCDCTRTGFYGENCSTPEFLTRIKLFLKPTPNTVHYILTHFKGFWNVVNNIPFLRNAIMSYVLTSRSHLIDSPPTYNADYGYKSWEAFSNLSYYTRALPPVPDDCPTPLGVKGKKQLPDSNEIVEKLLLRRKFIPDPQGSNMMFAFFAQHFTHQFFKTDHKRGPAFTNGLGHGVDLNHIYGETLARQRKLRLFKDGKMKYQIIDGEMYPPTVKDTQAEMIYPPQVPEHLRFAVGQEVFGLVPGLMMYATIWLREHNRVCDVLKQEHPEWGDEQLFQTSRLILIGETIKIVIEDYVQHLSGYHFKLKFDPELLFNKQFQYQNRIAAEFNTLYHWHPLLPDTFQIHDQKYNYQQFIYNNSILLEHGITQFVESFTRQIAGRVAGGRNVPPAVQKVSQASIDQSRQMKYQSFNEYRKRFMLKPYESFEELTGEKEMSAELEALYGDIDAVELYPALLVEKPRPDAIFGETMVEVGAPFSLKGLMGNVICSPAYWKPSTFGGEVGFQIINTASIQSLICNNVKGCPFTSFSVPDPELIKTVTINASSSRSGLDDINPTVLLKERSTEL
Method: (§1) We have adapted a previously reported cyclooxygenase enzymatic assay utilizing LCMS quantification of PGE2 as the product of COX-1 and COX2 catalyzed conversion of arachidonic acid to evaluate the binding properties of newly synthesized ligands [Cao, 2011]. These optimized and miniaturized (384-well plates) LCMS-based COX-1 and COX2 enzymatic assays enabled us to quickly evaluate newly synthesized ligands for COX2 binding affinity and selectivity vs COX-1. Using a shorter ligand-enzyme incubation time in the LCMS assay (2 minutes vs 10 minutes) also permitted us to prioritize ligands with faster binding kinetics. Considering the relatively slow on-rate kinetics of known coxibs, due to their 3-step binding mechanism [Marnett, 2009], we believe that optimizing this critical parameter will be key to the successful development of a COX2 PET tracer. Using these enzymatic assays, we have evaluated>200 newly synthesized ligands against COX2 and >20 ligands against COX-1. Another critical property necessary for a good PET radiotracer is to have low non-specific binding (NSB) to increase the free fraction and maximize the signal to noise ratio. This property can be evaluated using in-vitro protein binding assays, and we have now evaluated>50 newly synthesized ligands in mouse, rat and human plasma protein binding (PPB) assays as well as >15 ligands in a mouse brain protein binding (BPB) assay.
Ovine COX-1 (oCOX-1), ovine COX2 (oCOX2), human recombinant COX2 (hCOX2), arachidonic acid, PGE2, d4-PGD2, and […] (labeled with deuterium atoms at positions 3 and 4) were purchased from Cayman Chemicals (Ann Arbor, Mich.). The cofactors (−)epinephrine and hematin, and the COX inhibitors indomethacin, resveratrol and diclofenac were purchased from Sigma-Aldrich (St. Louis, Mo.). Celecoxib was purchased from 3B PharmaChem International (Wuhan, China). All organic solvents were HPLC grade or better and were purchased from Thermo Fisher (Hanover Park, Ill.). Formic acid was purchased from EMD Chemicals (San Diego, Calif.). Purified water was prepared by using a Millipore Milli-Q purification system (Millipore, Billerica, Mass.). All other chemicals and solvents were ACS reagent grade, unless stated otherwise.
In an Eppendorf tube, 146 μL of 100 mM Tris.HCl (pH 8.0) buffer, 2 μL of 100 μM hematin (co-factor) and 10 μL of 40 mM L-epinephrine (co-factor) were mixed at room temperature. […]
The concentration of PGE2 in each sample was measured using LC-MS-MS, and the percent of COX inhibition by each test solution was determined by comparing the amount of PGE2 produced in the experiment with that produced in the negative control incubation. The formation of PGD2 was measured for quality control purposes, since the levels of PGD2 should be proportional to those of PGE2. […]

[2] = molecular target: T1, human recombinant COX2 (hCOX2); test: as above; format: biochemical; parameters: COX2 2 minutes pge2/pge2d4 area ratio Avg; other: 2 minutes; readout pge2/pge2d4 area ratio; average; COX2 2 minutes pge2/pge2d4 area ratio Avg; LLE; average LLE; COX2 2 minutes pge2 area (counts) Avg; readout pge2 area (counts); other: 2 min; "ovine COX2 (oCOX2), human recombinant COX2 (hCOX2)"; conditions: 2 minutes; for IC50: average
Summary of the method: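 PGE2 formed from arachidonic acid (final 5 μM, 2 min) was measured by LC-MS-MS against DMSO controls. Enzyme (oCOX-1 0.1 μg or hCOX2 0.2 μg) with hematin/epinephrine cofactors at pH 8.0 was given 10 min at 37 °C with compound first. Twelve-point curves run three times gave IC50.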

[3] = in-vitro protein binding: free fraction / fraction unbound, matrix and species not given; format: in vitro ADME
Method: as §1

COX2 [4] = molecular target: T2, COX2 (Rattus norvegicus, UniProt P35355); test: in-vitro autoradiography in rat brain slices (self-block); format: binding; conditions: rat brain slices in vitro autoradiography, self-block, compared to earlier tracers
T2 construct: in-vitro autoradiography in rat brain slices; from tissue; host or cells: rat brain slices
T2 sequence (P35355 18-604): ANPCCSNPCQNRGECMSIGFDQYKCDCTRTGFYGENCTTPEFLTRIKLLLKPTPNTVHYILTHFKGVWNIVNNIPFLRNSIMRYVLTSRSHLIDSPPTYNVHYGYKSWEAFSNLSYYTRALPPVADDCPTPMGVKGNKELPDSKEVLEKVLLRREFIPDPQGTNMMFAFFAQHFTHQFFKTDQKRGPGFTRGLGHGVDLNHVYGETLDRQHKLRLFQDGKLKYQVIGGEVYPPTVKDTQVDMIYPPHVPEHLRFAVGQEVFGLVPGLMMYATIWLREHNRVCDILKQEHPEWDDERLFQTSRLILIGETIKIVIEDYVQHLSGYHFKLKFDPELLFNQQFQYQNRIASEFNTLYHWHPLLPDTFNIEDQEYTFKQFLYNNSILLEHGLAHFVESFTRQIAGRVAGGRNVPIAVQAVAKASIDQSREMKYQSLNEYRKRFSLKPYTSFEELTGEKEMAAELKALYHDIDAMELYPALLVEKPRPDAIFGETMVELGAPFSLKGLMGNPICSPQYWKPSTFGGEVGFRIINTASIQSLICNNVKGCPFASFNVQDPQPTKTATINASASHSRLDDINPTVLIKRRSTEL
Excerpt: Three ligands have been evaluated with in-vitro autoradiography in rat brain slices. Radiolabeling was accomplished via methylation of either a sulfinate precursor ([^11C]Rofecoxib), hydroxyl precursor ([^11C]MC1) or thiol precursor ([^11C]98) using [^11C]-methyl iodide and offers chemical flexibility for radiolabeling of future candidates. […] This translated into a ˜2-fold increase in COX2 specific binding in a rat brain slice in-vitro autoradiography. […] These properties enable us to better understand the contribution of potency and free fraction to the ligand's specific binding.
Three newly synthesized COX2 ligands were successfully radiolabeled using this strategy and first evaluated by in-vitro autoradiography in rat brain slices using self-block experiments (FIG. 5). […] [^11C]36 was also evaluated for specific binding using self-block experiments in human post-mortem brain tissues (globus pallidus) from three Huntington's disease (HD) patients (FIG. 6). COX2 protein levels were quantified using immunostaining and defined as high, medium and low, respectively.

COX2 [5] = molecular target: T2, COX2; test: rat in-vivo PET imaging (brain pharmacokinetics, self-block)
[6] = PET imaging in non-human primate (baboon); format: in vivo
Excerpt: This ideal pharmacokinetic profile in non-human primate positions these two optimized lead radiotracers for further evaluation using kinetic modeling with an arterial plasma input function and correction for plasma fraction unbound to obtain total volume of distribution (VT), the gold standard measure for PET quantification.

| improvement in potency [1] | COX2 2 minutes pge2/pge2d4 area ratio Avg. LLE ([2]; readout pge2/pge2d4 area ratio, average LLE) | IC50 ([2]; readout pge2/pge2d4 area ratio, read-out: COX2 2 minutes pge2/pge2d4 area ratio Avg. IC50) | COX2 2 minutes pge2 area (counts) Avg. LLE ([2]; readout pge2 area (counts), average LLE) | IC50 ([2]; readout pge2 area (counts), read-out: COX2 2 minutes pge2 area (counts) Avg. IC50) | fraction unbound [3] | specific binding (COX2 [4]) | specific binding in vivo (COX2 [5]; rat PET, self-block experiment, between 30-60 minutes) | Compound | brain pharmacokinetic (brain uptake and clearance) (COX2 [5]; rat in-vivo PET imaging) | brain uptake and clearance [6] |
| --- | --- | --- | --- | --- | --- | --- | --- | --- | --- | --- |
| ~6 fold | 4.506 | 0.108 µM | 4.564 | 0.0999 µM | 0.025 |  |  | COc1ncc(-c2ccc(S(C)(=O)=O)cc2)nc1NCc1cccs1 [Compound 116] |  |  |
| 10 fold |  |  |  |  |  |  |  | COc1cc(OCc2cccs2)nc(-c2ccc(S(C)(=O)=O)cc2)n1 [Compound 331] |  |  |
|  |  |  |  |  |  | significantly increased specific binding | modest but consistent specific binding | CS(=O)(=O)c1ccc(-c2cccc(NCc3ccoc3)n2)cc1 [[^11C]47] | high and rapid brain uptake followed by fast clearance | high, fast and homogeneous brain uptake along with fast clearance; also recorded: high, rapid and homogeneous brain uptake followed by fast clearance |
